Where two headings read alike, the source gives them in different places.
Tests used:
[1] = test system: Capan-1 cells (K-Ras G12V); assay: CellTiter-Glo cell viability, Capan-1; type: cell-based, human; details: read-out: Capan-1 Cell Viability IC50
Method in brief: (§1)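 Endpoint: CellTiter-Glo luminescence on day 5, following ~30 min at room temperature. Data as (sample/mean DMSO)×100, four-parameter logistic fit.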

[2] = molecular target: KRAS G12S (Homo sapiens (Human), UniProt P01116+P62937, G12S); assay: Ras-Raf disruption/FRET/MOA assay (BRAF RBD, Cyclophilin A); type: biochemical; details: read-out: KRAS G12S FRET IC50
Method in brief: (§2)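 TR-FRET readout: anti-His Eu-W1024 (10 nM) and anti-GST allophycocyanin (50 nM) added after 3 h, 25° C compound incubation, then 1.5 h more. Decrease in FRET ratio versus DMSO wells marks Ras:RAF disruption; IC50 reported.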

[3] = molecular target: KRAS G13D (Homo sapiens (Human), UniProt P01116+P62937, G13D); assay: as above; type: biochemical; details: read-out: KRAS G13D FRET data IC50
Method in brief: as §2

[4] = molecular target: KRAS Q61H (Homo sapiens (Human), UniProt P01116+P62937, Q61H); assay: as above; type: biochemical
Method in brief: as §2

[5] = molecular target: KRAS WT (Homo sapiens (Human), UniProt P01116+P62937); assay: as above; type: biochemical; details: read-out: KRAS WT FRET data IC50
Method in brief: as §2

[6] = molecular target: NRAS G12C (Homo sapiens (Human), UniProt P01111+P62937, G12C); assay: as above; type: biochemical; details: read-out: NRAS G12C FRET data IC50
Method in brief: (§3)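 Ras-GMPPNP (12.5 nM), BRAF RBD (50 nM) and 25 μM Cyclophilin A were incubated with compound for 3 h at 25° C, then detected 1.5 h with anti-His Eu and anti-GST APC; IC50 values follow from the reduced TR-FRET ratio.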

[7] = molecular target: KRAS G12D (Homo sapiens (Human), UniProt P01116+P62937, G12D); assay: as above; type: biochemical; details: read-out: KRAS G12D FRET IC50
Method in brief: as §2

[8] = molecular target: KRAS G12V (Homo sapiens (Human), UniProt P01116+P62937, G12V); assay: as above; type: biochemical; details: read-out: KRAS G12V FRET IC50
Method in brief: as §2

[9] = molecular target: KRAS G13C (Homo sapiens (Human), UniProt P01116+P62937, G13C); assay: as above; type: biochemical; details: read-out: KRAS G13C FRET IC50
Method in brief: as §2

[10] = molecular target: KRAS G12C (Homo sapiens (Human), UniProt P01116+P62937, G12C); assay: as above; type: biochemical; details: read-out: KRAS G12C FRET IC50
Method in brief: as §2

[11] = molecular target: NRAS WT (Homo sapiens (Human), UniProt P01111+P62937); assay: as above; type: biochemical
Method in brief: as §3

[12] = molecular target: NRAS Q61R (Homo sapiens (Human), UniProt P01111+P62937, Q61R); assay: as above; type: biochemical
Method in brief: as §3

[13] = test system: K-Ras G12C (NCI-H358 cells); assay: Potency assay: pERK in NCI-H358 cells; type: cell-based, human; details: Homo sapiens, read-out: pERK EC50 (H358 KRAS G12C)
Method in brief: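 Cells plated the day before were exposed for 4 h at 37° C, 5% CO2 to a 10-point, 3-fold DMSO dilution series (10 mM top stock), in duplicate. Phospho-ERK was read by AlphaLISA SureFire Ultra or by In-Cell Western with DRAQ5 DNA stain, and IC50 came from a 4-parameter sigmoidal fit.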

[14] = test system: NCI-H358 cells (K-Ras G12C); assay: CellTiter-Glo cell viability, NCI-H358; type: cell-based, human; details: K-Ras G12C, 5-day treatment, read-out: H358 Cell Viability IC50
Method in brief: as §1

[15] = Homo sapiens, CAPAN-1, 120 h, K-Ras G12V, 5-day treatment

Chain of KRAS G12V (P01116 other isoform, or with tags, fused parts or gaps G12V): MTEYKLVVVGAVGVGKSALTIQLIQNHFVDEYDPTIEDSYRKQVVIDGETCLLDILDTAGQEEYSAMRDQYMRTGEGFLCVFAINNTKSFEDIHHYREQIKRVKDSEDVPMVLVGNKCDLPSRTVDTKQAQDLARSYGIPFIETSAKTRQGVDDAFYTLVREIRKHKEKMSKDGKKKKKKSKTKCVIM
Chain of KRAS G12V (P62937 whole entry): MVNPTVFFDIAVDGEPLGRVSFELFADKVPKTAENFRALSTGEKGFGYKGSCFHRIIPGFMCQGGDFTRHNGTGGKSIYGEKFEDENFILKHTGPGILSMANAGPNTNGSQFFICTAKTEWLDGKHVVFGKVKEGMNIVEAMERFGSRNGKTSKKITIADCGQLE
Chain of NRAS WT (P01111 whole entry): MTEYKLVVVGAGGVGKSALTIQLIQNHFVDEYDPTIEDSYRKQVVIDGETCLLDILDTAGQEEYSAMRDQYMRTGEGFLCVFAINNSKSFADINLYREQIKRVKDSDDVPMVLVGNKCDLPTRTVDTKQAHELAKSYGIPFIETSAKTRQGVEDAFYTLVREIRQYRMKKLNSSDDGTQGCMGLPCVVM
Chain of NRAS WT (P62937 whole entry): as the sequence (P62937 whole entry) above
Chain of NRAS Q61R (P01111 whole entry Q61R): as the sequence (P01111 whole entry) above, with Q61R counted along it
Chain of NRAS Q61R (P62937 whole entry): as the sequence (P62937 whole entry) above
Chain of KRAS WT (P01116 other isoform, or with tags, fused parts or gaps): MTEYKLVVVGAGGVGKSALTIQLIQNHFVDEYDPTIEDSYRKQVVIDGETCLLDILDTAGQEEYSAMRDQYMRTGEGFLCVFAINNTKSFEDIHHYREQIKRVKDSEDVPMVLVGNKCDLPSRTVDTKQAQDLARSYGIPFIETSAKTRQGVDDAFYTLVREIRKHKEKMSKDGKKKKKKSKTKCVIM
Chain of KRAS WT (P62937 whole entry): as the sequence (P62937 whole entry) above
Chain of KRAS G12S (P01116 other isoform, or with tags, fused parts or gaps G12S): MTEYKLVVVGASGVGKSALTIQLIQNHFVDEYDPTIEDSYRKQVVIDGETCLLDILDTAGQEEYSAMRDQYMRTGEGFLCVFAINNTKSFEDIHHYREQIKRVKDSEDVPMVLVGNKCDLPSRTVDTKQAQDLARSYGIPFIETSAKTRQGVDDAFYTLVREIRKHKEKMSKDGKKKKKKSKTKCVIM
Chain of KRAS G12S (P62937 whole entry): as the sequence (P62937 whole entry) above
Chain of KRAS G13D (P01116 other isoform, or with tags, fused parts or gaps G13D): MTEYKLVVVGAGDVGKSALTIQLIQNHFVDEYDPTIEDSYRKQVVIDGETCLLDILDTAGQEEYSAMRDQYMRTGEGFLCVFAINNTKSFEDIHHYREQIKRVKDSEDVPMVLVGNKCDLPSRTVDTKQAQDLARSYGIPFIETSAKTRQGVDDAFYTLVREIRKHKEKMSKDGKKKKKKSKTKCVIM
Chain of KRAS G13D (P62937 whole entry): as the sequence (P62937 whole entry) above
Chain of KRAS G12D (P01116 other isoform, or with tags, fused parts or gaps G12D): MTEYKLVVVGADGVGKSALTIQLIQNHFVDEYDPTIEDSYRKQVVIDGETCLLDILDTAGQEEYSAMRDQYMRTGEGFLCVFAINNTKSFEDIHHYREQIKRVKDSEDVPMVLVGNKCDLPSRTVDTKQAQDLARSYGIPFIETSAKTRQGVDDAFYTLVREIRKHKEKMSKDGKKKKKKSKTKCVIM
Chain of KRAS G12D (P62937 whole entry): as the sequence (P62937 whole entry) above
Chain of KRAS Q61H (P01116 other isoform, or with tags, fused parts or gaps Q61H): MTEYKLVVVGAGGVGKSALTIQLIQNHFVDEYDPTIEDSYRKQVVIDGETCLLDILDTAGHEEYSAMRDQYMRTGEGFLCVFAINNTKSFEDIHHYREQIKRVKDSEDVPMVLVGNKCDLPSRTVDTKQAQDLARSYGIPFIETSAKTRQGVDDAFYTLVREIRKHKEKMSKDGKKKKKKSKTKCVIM
Chain of KRAS Q61H (P62937 whole entry): as the sequence (P62937 whole entry) above
Chain of NRAS G12C (P01111 whole entry G12C): as the sequence (P01111 whole entry) above, with G12C counted along it
Chain of NRAS G12C (P62937 whole entry): as the sequence (P62937 whole entry) above
Chain of KRAS G12C (P01116-2 other isoform, or with tags, fused parts or gaps G12C): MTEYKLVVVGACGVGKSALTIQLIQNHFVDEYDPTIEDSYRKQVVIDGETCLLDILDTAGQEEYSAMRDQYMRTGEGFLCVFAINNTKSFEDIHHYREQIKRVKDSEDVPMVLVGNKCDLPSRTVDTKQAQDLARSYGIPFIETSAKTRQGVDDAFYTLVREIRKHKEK
Chain of KRAS G12C (P62937 whole entry): as the sequence (P62937 whole entry) above
Chain of KRAS G13C (P01116 other isoform, or with tags, fused parts or gaps G13C): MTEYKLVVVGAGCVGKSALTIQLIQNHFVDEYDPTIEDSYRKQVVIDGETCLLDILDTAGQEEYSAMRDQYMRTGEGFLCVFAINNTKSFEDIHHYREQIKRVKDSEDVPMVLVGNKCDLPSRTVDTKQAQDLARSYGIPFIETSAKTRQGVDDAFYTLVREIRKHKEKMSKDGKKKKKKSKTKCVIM
Chain of KRAS G13C (P62937 whole entry): as the sequence (P62937 whole entry) above

CCn1c(-c2cccnc2[C@H](C)OC)c2c3cc(ccc31)-c1csc(n1)C[C@H](NC(=O)[C@H](C(C)C)N(C)C(=O)N1CC(S(=O)(=O)N(C)C)C1)C(=O)N1CCC[C@H](N1)C(=O)OCC(C)(C)C2 [Compound A551]
100 to 1000 nM: IC50 [2] | IC50 [3] | IC50 [5] | IC50 [7] | IC50 [8] | IC50 [9] | IC50 [11] | IC50 [12]
< 5000 nM: EC50 ([13]; NCI-H358, 4 h)
10 to 100 nM: IC50 ([1]; Homo sapiens, CAPAN-1, 120 h) | IC50 [4] | IC50 [6] | IC50 [10]

CCn1c(-c2cccnc2[C@H](C)OC)c2c3cc(ccc31)-c1csc(n1)C[C@H](NC(=O)[C@H](C(C)C)N(C)C(=O)N1CC([C@@H](CO)OC)C1)C(=O)N1CCC[C@H](N1)C(=O)OCC(C)(C)C2 [Compound A514]
100 to 1000 nM: IC50 [2] | IC50 [3] | IC50 [5] | IC50 [7] | IC50 [8] | IC50 [9] | IC50 [11] | IC50 [12]
10 to 100 nM: IC50 [1, 15] | IC50 [4] | IC50 [6] | IC50 [10]

CCn1c(-c2cccnc2[C@H](C)OC)c2c3cc(ccc31)-c1csc(n1)C[C@H](NC(=O)[C@H](C(C)C)N(C)C(=O)N1CC[C@H](O)C1)C(=O)N1CCC[C@H](N1)C(=O)OCC(C)(C)C2 [Compound A401]
10 to 100 nM: IC50 ([14]; Homo sapiens, NCI-H358, 120 h) | IC50 [1, 15] | IC50 [4] | IC50 [6] | IC50 [10]
100 to 1000 nM: IC50 [2] | IC50 [3] | IC50 [5] | IC50 [7] | IC50 [8] | IC50 [9] | IC50 [11] | IC50 [12]

CCn1c(-c2cccnc2[C@H](C)OC)c2c3cc(ccc31)-c1csc(n1)C[C@H](NC(=O)[C@H](C(C)C)N(C)C(=O)N1CC(C(=O)N3CCOCC3)C1)C(=O)N1CCC[C@H](N1)C(=O)OCC(C)(C)C2 [Compound A543]
100 to 1000 nM: IC50 [2] | IC50 [3] | IC50 [5] | IC50 [7] | IC50 [8] | IC50 [9] | IC50 [11] | IC50 [12]
10 to 100 nM: IC50 [1, 15] | IC50 [4] | IC50 [6] | IC50 [10]

CCn1c(-c2cccnc2[C@H](C)OC)c2c3cc(ccc31)-c1csc(n1)C[C@H](NC(=O)[C@H](C(C)C)N(C)C(=O)N1CC3(CN(C)C3)C1)C(=O)N1CCC[C@H](N1)C(=O)OCC(C)(C)C2 [Compound A268]
< 5000 nM: EC50 ([13]; NCI-H358 cells, 4 hours)
10 to 100 nM: IC50 [6]
100 to 1000 nM: IC50 ([14]; Homo sapiens, NCI-H358, 120 h) | IC50 [1, 15] | IC50 [2] | IC50 [3] | IC50 [5] | IC50 [7] | IC50 [8] | IC50 [9] | IC50 [10] | IC50 [11] | IC50 [12]

CCn1c(-c2cccnc2[C@H](C)OC)c2c3cc(ccc31)-c1csc(n1)C[C@H](NC(=O)[C@H](C(C)C)N(C)C(=O)N1CC(C#N)(N(C)C)C1)C(=O)N1CCC[C@H](N1)C(=O)OCC(C)(C)C2 [Compound A452]
100 to 1000 nM: IC50 [4] | IC50 [11] | IC50 [12]
< 5000 nM: EC50 ([13]; NCI-H358 cells, 4 hours)

CCn1c(-c2cccnc2[C@H](C)OC)c2c3cc(ccc31)-c1csc(n1)C[C@H](NC(=O)[C@H](C(C)C)N(C)C(=O)N1CC(O)C1)C(=O)N1CCC[C@H](N1)C(=O)OCC(C)(C)C2 [Compound A358]
< 5000 nM: EC50 ([13]; NCI-H358 cells, 4 hours)
100 to 1000 nM: IC50 [2] | IC50 [3] | IC50 [5] | IC50 [7] | IC50 [8] | IC50 [9] | IC50 [11] | IC50 [12]
10 to 100 nM: IC50 [1, 15] | IC50 [4] | IC50 [6] | IC50 [10]

CCn1c(-c2cccnc2[C@H](C)OC)c2c3cc(ccc31)-c1csc(n1)C[C@H](NC(=O)N1CCC1)C(=O)N1CCC[C@H](N1)C(=O)OCC(C)(C)C2 [Compound A369]
100 to 1000 nM: IC50 [14] | IC50 ([1]; K-Ras G12V, 5-day treatment) | IC50 [2] | IC50 [3] | IC50 [4] | IC50 [8] | IC50 [9] | IC50 [10] | IC50 [12]
1000 to 10000 nM: IC50 [7]

CCn1c(-c2cccnc2[C@H](C)OC)c2c3cc(ccc31)-c1csc(n1)C[C@H](NC(=O)[C@H](C(C)C)N(C)C(=O)N1CC(C(=O)O)C1)C(=O)N1CCC[C@H](N1)C(=O)OCC(C)(C)C2 [Compound A344]
100 to 1000 nM: IC50 [2] | IC50 [4] | IC50 [5] | IC50 [6] | IC50 [8] | IC50 [9] | IC50 [10] | IC50 [11] | IC50 [12]
> 10000 nM: IC50 [1, 15]
< 5000 nM: EC50 ([13]; NCI-H358 cells, 4 hours)
1000 to 10000 nM: IC50 [3] | IC50 [7]

CCn1c(-c2cccnc2[C@H](C)OC)c2c3cc(ccc31)-c1csc(n1)C[C@H](NC(=O)[C@H](C(C)C)N(C)C(=O)N1CC(C(C)(C)O)C1)C(=O)N1CCC[C@H](N1)C(=O)OCC(C)(C)C2 [Compound A289]
10 to 100 nM: IC50 [1, 15] | IC50 [4] | IC50 [6] | IC50 [10]
100 to 1000 nM: IC50 [2] | IC50 [3] | IC50 [5] | IC50 [7] | IC50 [8] | IC50 [9] | IC50 [11] | IC50 [12]

CCn1c(-c2cccnc2[C@H](C)OC)c2c3cc(ccc31)-c1csc(n1)C[C@H](NC(=O)[C@H](C(C)C)N(C)C(=O)N1CC([C@H](CO)OC)C1)C(=O)N1CCC[C@H](N1)C(=O)OCC(C)(C)C2 [Compound A515]
< 5000 nM: EC50 ([13]; NCI-H358 cells, 4 hours)
10 to 100 nM: IC50 [1, 15] | IC50 [4] | IC50 [6] | IC50 [10]
100 to 1000 nM: IC50 [2] | IC50 [3] | IC50 [5] | IC50 [7] | IC50 [8] | IC50 [9] | IC50 [11] | IC50 [12]

— US20250195521A1 (Revolution Medicines, Inc., priority 2020, published 2025)
